Drawing on paper PMC6637479, “Identification of undecylenic acid as EAG channel inhibitor using surface plasmon resonance-based screen of KCNH channels” (BMC Pharmacology & Toxicology, 2019), this text covers Kd for one molecule.

In this assay the target is T1, mEAG1 (Mus musculus, UniProt Q60603).
T1 construct: gene Kcnh1; PAS domain, residues 7–136 (N-terminal 6-His)
T1 sequence (Q60603 7-136): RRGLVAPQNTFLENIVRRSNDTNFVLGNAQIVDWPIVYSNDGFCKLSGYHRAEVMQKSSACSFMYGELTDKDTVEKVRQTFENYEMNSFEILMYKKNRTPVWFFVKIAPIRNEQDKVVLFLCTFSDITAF
The assay is described as follows: SPR steady-state dose response (Biacore […]); also inhibits full-length mEAG1 currents in inside-out patches, IC50 […]. It is filed as binding.

As for `C=CCCCCCCCCC(=O)O` [undecylenic acid], the Kd (usually the equilibrium constant for the complex coming apart) is around 11 µM.
